In brackets after ≈: the same amount, converted by molar mass.
What was measured:
Macrophomina phaseolina [1] = assay: In vivo effect on peroxidase activity in Macrophomina phaseoli assessed as DNA content at 0.5 times of IC50 concentration (reference value: 15.5 +/- 0.5 mg/l); type: functional
Macrophomina phaseolina [2] = assay: In vivo effect on peroxidase activity in Macrophomina phaseoli assessed as DNA content at 0.25 times of IC50 concentration (reference value: 15.5 +/- 0.5 mg/l); type: functional
Macrophomina phaseolina [3] = assay: In vivo effect on peroxidase activity in Macrophomina phaseoli assessed as RNA content at 2 times of IC50 concentration (reference value: 16.1 +/- 0.4 mg/l); type: functional
Macrophomina phaseolina [4] = assay: In vivo effect on peroxidase activity in Macrophomina phaseoli assessed as RNA content at 1 times of IC50 concentration (reference value: 16.1 +/- 0.4 mg/l); type: functional
Macrophomina phaseolina [5] = assay: In vivo effect on peroxidase activity in Macrophomina phaseoli assessed as RNA content at 0.25 times of IC50 concentration (reference value: 16.1 +/- 0.4 mg/l); type: functional
Rhizoctonia solani [6] = assay: In vivo effect on peroxidase activity in Rhizoctonia solani assessed as total soluble sugar content per gram of dry hyphal at 1 times of IC50 concentration (reference value: 20.1 +/- 0.8 mg/g of dry weight); type: functional
Rhizoctonia solani [7] = assay: In vivo effect on peroxidase activity in Rhizoctonia solani assessed as total soluble sugar content per gram of dry hyphal at 0.5 times of IC50 concentration (reference value: 20.1 +/- 0.8 mg/g of dry weight); type: functional
Rhizoctonia solani [8] = assay: In vivo effect on peroxidase activity in Rhizoctonia solani assessed as total soluble sugar content per gram of dry hyphal at 0.25 times of IC50 concentration (reference value: 20.1 +/- 0.8 mg/g of dry weight); type: functional
Macrophomina phaseolina [9] = assay: In vivo effect on peroxidase activity in Macrophomina phaseoli assessed as reduced sugar content per gram of dry hyphal at 0.1 times of IC50 concentration (reference value: 7.3 +/- 0.5 mg/g of dry weight); type: functional
Rhizoctonia solani [10] = assay: In vivo effect on peroxidase activity in Rhizoctonia solani assessed as DNA content at 0.5 times of IC50 concentration (reference value: 24 +/- 0.7 mg/l); type: functional
Rhizoctonia solani [11] = assay: In vivo effect on peroxidase activity in Rhizoctonia solani assessed as RNA content at 1 times of IC50 concentration (reference value: 25 +/- 0.7 mg/l); type: functional
[12] = test system: Globisporangium debaryanum; assay: In vivo effect on peroxidase activity in Pythium debaryanum assessed as DNA content at 0.5 times of IC50 concentration (reference value: 31 +/- 0.8 mg/l); type: functional
[13] = test system: Globisporangium debaryanum; assay: In vivo effect on peroxidase activity in Pythium debaryanum assessed as DNA content at 0.25 times of IC50 concentration (reference value: 31 +/- 0.8 mg/l); type: functional
[14] = test system: Globisporangium debaryanum; assay: In vivo effect on peroxidase activity in Pythium debaryanum assessed as DNA content at 0.1 times of IC50 concentration (reference value: 31 +/- 0.8 mg/l); type: functional
[15] = test system: Globisporangium debaryanum; assay: In vivo effect on peroxidase activity in Pythium debaryanum assessed as RNA content at 1 times of IC50 concentration (reference value: 32.2 +/- 0.7 mg/l); type: functional
[16] = test system: Globisporangium debaryanum; assay: In vivo effect on peroxidase activity in Pythium debaryanum assessed as RNA content at 0.5 times of IC50 concentration (reference value: 32.2 +/- 0.7 mg/l); type: functional
[17] = test system: Globisporangium debaryanum; assay: In vivo effect on peroxidase activity in Pythium debaryanum assessed as RNA content at 0.25 times of IC50 concentration (reference value: 32.2 +/- 0.7 mg/l); type: functional
Macrophomina phaseolina [18] = assay: In vivo effect on peroxidase activity in Macrophomina phaseoli assessed as DNA content at 2 times of IC50 concentration (reference value: 15.5 +/- 0.5 mg/l); type: functional
Rhizoctonia solani [19] = assay: In vivo effect on peroxidase activity in Rhizoctonia solani assessed as non-reducing sugar content per gram of dry hyphal at 1 times of IC50 concentration (reference value: 2.8 +/- 0.2 mg/g of dry weight); type: functional
Rhizoctonia solani [20] = assay: In vivo effect on peroxidase activity in Rhizoctonia solani assessed as non-reducing sugar content per gram of dry hyphal at 0.25 times of IC50 concentration (reference value: 2.8 +/- 0.2 mg/g of dry weight); type: functional
Rhizoctonia solani [21] = assay: In vivo effect on peroxidase activity in Rhizoctonia solani assessed as reduced sugar content per gram of dry hyphal at 0.5 times of IC50 concentration (reference value: 17.3 +/- 1 mg/g of dry weight); type: functional
Rhizoctonia solani [22] = assay: In vivo effect on peroxidase activity in Rhizoctonia solani assessed as reduced sugar content per gram of dry hyphal at 0.25 times of IC50 concentration (reference value: 17.3 +/- 1 mg/g of dry weight); type: functional
Rhizoctonia solani [23] = assay: In vivo effect on peroxidase activity in Rhizoctonia solani assessed as reduced sugar content per gram of dry hyphal at 0.1 times of IC50 concentration (reference value: 17.3 +/- 1 mg/g of dry weight); type: functional
Macrophomina phaseolina [24] = assay: In vivo effect on peroxidase activity in Macrophomina phaseoli assessed as total soluble sugar content per gram of dry hyphal at 1 times of IC50 concentration (reference value: 19.3 +/- 0.7 mg/g of dry weight); type: functional
Macrophomina phaseolina [25] = assay: In vivo effect on peroxidase activity in Macrophomina phaseoli assessed as DNA content at 1 times of IC50 concentration (reference value: 15.5 +/- 0.5 mg/l); type: functional
Macrophomina phaseolina [26] = assay: In vivo effect on peroxidase activity in Macrophomina phaseoli assessed as RNA content at 0.1 times of IC50 concentration (reference value: 16.1 +/- 0.4 mg/l); type: functional
Fusarium culmorum [27] = assay: In vivo effect on peroxidase activity in Fusarium culmorum assessed as DNA content at 2 times of IC50 concentration (reference value: 49.5 +/- 1.6 mg/l); type: functional
Fusarium culmorum [28] = assay: In vivo effect on peroxidase activity in Fusarium culmorum assessed as DNA content at 1 times of IC50 concentration (reference value: 49.5 +/- 1.6 mg/l); type: functional
Fusarium culmorum [29] = assay: In vivo effect on peroxidase activity in Fusarium culmorum assessed as DNA content at 0.25 times of IC50 concentration (reference value: 49.5 +/- 1.6 mg/l); type: functional
Fusarium culmorum [30] = assay: In vivo effect on peroxidase activity in Fusarium culmorum assessed as RNA content at 1 times of IC50 concentration (reference value: 51.5 +/- 1.5 mg/l); type: functional
Fusarium culmorum [31] = assay: In vivo effect on peroxidase activity in Fusarium culmorum assessed as RNA content at 0.1 times of IC50 concentration (reference value: 51.5 +/- 1.5 mg/l); type: functional
[32] = Activation of peroxidase activity in Rhizoctonia solani
[33] = test system: Globisporangium debaryanum; assay: Inhibition of peroxidase activity in Pythium debaryanum at 0.5 times of IC50 concentration
[34] = Inhibition of polyphenoloxidase activity in Macrophomina phaseoli; design: species or system Macrophomina phaseolina
[35] = Inhibition of polyphenoloxidase activity in Fusarium culmorum
Macrophomina phaseolina [36] = assay: Fungicidal activity against Macrophomina phaseoli assessed as inhibition of hyphal growth by radial growth test; type: functional, organism-based

SMILES | Activity (Macrophomina phaseolina [1]) [mg/L] | Activity (Macrophomina phaseolina [2]) [mg/L] | Activity (Macrophomina phaseolina [3]) [mg/L] | Activity (Macrophomina phaseolina [4]) [mg/L] | Activity (Macrophomina phaseolina [5]) [mg/L] | Activity (Rhizoctonia solani [6]) [mg] | Activity (Rhizoctonia solani [7]) [mg] | Activity (Rhizoctonia solani [8]) [mg] | Activity (Macrophomina phaseolina [9]) [mg] | Activity (Rhizoctonia solani [10]) [mg/L] | Activity (Rhizoctonia solani [11]) [mg/L] | Activity [12] [mg/L] | Activity [13] [mg/L] | Activity [14] [mg/L] | Activity [15] [mg/L] | Activity [16] [mg/L] | Activity [17] [mg/L] | Activity (Macrophomina phaseolina [18]) [mg/L] | Activity (Rhizoctonia solani [19]) [mg] | Activity (Rhizoctonia solani [20]) [mg] | further results
CC(=O)n1c(-c2ccccc2)cc2ccccc21 | 8.3 | 10.3 | 6.7 | 8.5 | 10.6 | 2.8 | 6 | 10.8 | 2.5 | 26.6 | 32.6 | 11.3 | 25.8 | 26 | 18.2 | 11.8 | 26.8 | 6.5 | 0.2 | 1.2 | Activity (Rhizoctonia solani [21]): 5.6 mg; Activity (Rhizoctonia solani [22]): 9.6 mg; Activity (Rhizoctonia solani [23]): 9.7 mg; Activity (Macrophomina phaseolina [24]): 34.7 mg; Activity (Macrophomina phaseolina [25]): 8.2 mg/L; Activity (Macrophomina phaseolina [26]): 12.9 mg/L; Activity (Fusarium culmorum [27]): 19.5 mg/L; Activity (Fusarium culmorum [28]): 27.2 mg/L; Activity (Fusarium culmorum [29]): 29.9 mg/L; Activity (Fusarium culmorum [30]): 28.3 mg/L; Activity (Fusarium culmorum [31]): 45.4 mg/L; AC50 [32]: < 11.7 µg/mL; inhibition [33]: 1.3%; IC50 [34]: 80.2 µg/mL (≈ 341 µM); IC50 [35]: 41.5 µg/mL (≈ 176 µM); IC50 (Macrophomina phaseolina [36]): 93 µg/mL (≈ 395 µM)
c1ccc(-c2cc3ccccc3[nH]2)cc1 [2-PHENYL-1H-INDOLE] | 8 | 6.8 | 5.9 | 6.3 | 7.2 | 9.8 | 19.1 | 71.8 | 6.3 | 29.6 | 32.2 | 10.9 | 19.1 | 30.9 | 30.6 | 11.4 | 19.8 | 5.7 | 2.2 | 11.4 | Activity (Rhizoctonia solani [21]): 16 mg; Activity (Rhizoctonia solani [22]): 60.3 mg; Activity (Rhizoctonia solani [23]): 44.3 mg; Activity (Macrophomina phaseolina [24]): 7.1 mg; Activity (Macrophomina phaseolina [25]): 6.1 mg/L; Activity (Macrophomina phaseolina [26]): 6.7 mg/L; Activity (Fusarium culmorum [27]): 23.8 mg/L; Activity (Fusarium culmorum [28]): 25.3 mg/L; Activity (Fusarium culmorum [29]): 23.7 mg/L; Activity (Fusarium culmorum [30]): 26.3 mg/L; Activity (Fusarium culmorum [31]): 29.7 mg/L; AC50 [32]: 14.5 µg/mL (≈ 75 µM); inhibition [33]: 0%; IC50 [34]: 117.1 µg/mL (≈ 606 µM); IC50 [35]: 87.6 µg/mL (≈ 453 µM); IC50 (Macrophomina phaseolina [36]): 96 µg/mL (≈ 497 µM)
